Tests used:
[1] = Test I: peroxide value of refined lard by the active oxygen method (AOM); settings: 0.02% by weight in lard, 97.5° C.
Method: (§1) The above-obtained compound was tested for its anti-oxidative effects in terms of peroxide value by the active oxygen method (AOM) and also in terms of oxygen absorption. […] Each of the tests I and II are described below together with the results thereof.
Varied amounts of the compound were admixed with and uniformly dissolved in portions of refined lard each weighing 20 g to prepare test samples. Each test sample was kept in an oil bath of thermostat at 97.5°±0.5° C., while air was forcedly blown into the lard at a rate of […].
The thus treated samples of the lard were analyzed for the peroxide value (POV for brevity) periodically or at certain intervals, in accordance with the modified Lea's method as described in "Yukagaku" (Journal of Japan Oil Chemist Society), vol. 19(15), p. 340, 1970.
In comparison, similar experiments were undertaken for the samples of the same lard with addition of BHA instead of the compound of the present invention or without addition of any anti-oxidant.

[2] = Test II: oxygen absorption in corn salad oil, Warburg's manometer; settings: 0.02% by weight in corn salad oil, 60° C.
Method: as §1
The compound of the present invention was determined for the rate of oxygen absorption in a corn salad oil to which 0.02% by weight of the compound had been added. For the purpose, 2 grams of the corn salad oil sample was taken in the receptacle of Warburg's manometer with thermostat at 60°±0.1° C., which was shaken with 110 vibrations per minute in a vibration amplitude of 60 mm. The rate of oxygen absorption was determined by reading the manometer according to the procedure set forth in "Jikken Kagaku Koza" (Lectures in Experimental Chemistry), vol. 24, p. 85, 1958, Maruzen Publishing, Japan. In this testing, the receptacle was totally wrapped with an aluminum foil to prevent the photooxidation of the oil, and mercury was used as the manometer fluid in place of Brodie's solution in order to minimize any possible influence caused by fluctuations in the atmospheric pressure.
Further, in comparison, a similar test was conducted using the same corn salad oil with addition of 0.02% by weight of BHA or without addition of any anti-oxidant.

mouse = settings: comparison value for BHA; cited from earlier work

Q: With `COc1ccc(O)c(C(C)(C)C)c1` [BHA, butylhydroxyanisole, reference compound] as the compound, how does the Peroxide value ([1]; 8 hours) read?
A: The Peroxide value was 2.8 meq./kg.

Q: And the Peroxide value ([1]; 16 hours)?
A: The Peroxide value was 5.1 meq./kg.

Q: What about the Peroxide value ([1]; 24 hours) of the same compound?
A: Its Peroxide value is 7.9 meq./kg.

Q: And the Peroxide value ([1]; 32 hours)?
A: The Peroxide value was 13.8 meq./kg.

Q: What about the Peroxide value ([1]; 40 hours) of the same compound?
A: Its Peroxide value is 28.9 meq./kg.

Q: And the Peroxide value ([1]; 48 hours)?
A: The Peroxide value was 33.1 meq./kg.

Q: And the Peroxide value ([1]; 56 hours)?
A: Its Peroxide value is 43.1 meq./kg.

Q: And the Peroxide value ([1]; 64 hours)?
A: The Peroxide value was 97.3 meq./kg.

Q: What about the Peroxide value ([1]; 72 hours) of the same compound?
A: The Peroxide value was 296.7 meq./kg.

Q: And the Oxygen absorption ([2]; 85 hours)?
A: The Oxygen absorption was 57.6 μ1/g.

Q: And the Oxygen absorption ([2]; 140 hours)?
A: The Oxygen absorption was 116.2 μ1/g.

Q: What about the Oxygen absorption ([2]; 166 hours) of the same compound?
A: The Oxygen absorption was 174.8 μ1/g.

Q: And the Oxygen absorption ([2]; 199 hours)?
A: The Oxygen absorption was 219.0 μ1/g.

Q: What about the Oxygen absorption ([2]; 263 hours) of the same compound?
A: The Oxygen absorption was 478.9 μ1/g.

Q: What about the Oxygen absorption ([2]; 288 hours) of the same compound?
A: Its Oxygen absorption is 697.8 μ1/g.

Q: What about the Oxygen absorption ([2]; 320 hours) of the same compound?
A: The Oxygen absorption was 922.9 μ1/g.

Q: What about the Oxygen absorption ([2]; 343 hours) of the same compound?
A: Its Oxygen absorption is 1124.2 μ1/g.

Q: And the LD50 value (mouse)?
A: The LD50 value was 1,100 mg/kg.

Source: US4195101A, “2',6'-Dihydroxy-9-(2,5-dihydroxyphenyl)octylphenone and its use as an anti-oxidant” (The Lion Dentifrice Co. Ltd., priority 1977, dated 1980)
